Test results from US8053627B2, “Methods for treating demyelination disorders” (University of Chicago, priority 2005, dated 2011).

Key:
[1] = system: Hippocampal organotypic cultures; assay: Hippocampal organotypic cultures (HOC), in vitro model of myelination, MBP Western blot; format: cell-based; conditions: 7 days of 100 U/ml IFN-γ exposure
Experimental: HOCs, were prepared and maintained as described previously (Kunkler and Kraig (1997) J Cereb Blood Flow Metab. 17:2643), and were maintained in vitro for 7 days before use. SAL at various concentrations was combined with 100 U/ml IFN-γ and added to the HOC cultures for 7 days. […] After 7 days of 100 U/ml IFN-γ exposure, the levels of MBP decreased approximately 80% in the HOCs (FIG. 29).

[2] = system: oligodendrocytes and myelin; assay: IFN-γ-overexpressing mice crossed to PLP/SOCS1 mice, clinical and histological evaluation at postnatal day 21; format: in vivo; conditions: for oligodendrocyte density: corpus callosum, postnatal day 21; for G ratio (axon diameter/fiber diameter ratio): hypomyelination defined as G ratio>0.8
Experimental: IFN-γ-overexpressing mice were crossed to the PLP/SOCS1 mice in double-transgenic, (MBP/IFN-γ×PLP/SOCS1) and triple-transgenic (GFAP/tTA×TRE/IFN-γ×PLP/SOCS1) mating systems. MBP/IFN-γ×PLP/SOCS1 (172×PLP/SOCS1) mating was performed according to a standard mating protocol. The GFAP/tTA×TRE/IFN-γ×PLP/SOCS1 matings were performed in a 2-step mating process: GFAP/tTA mice were initially crossed to PLP/SOCS1 mice, and double-positive (184×PLP/SOCS1) offspring were then crossed to the TRE/IFN-γ lines 110 and 67, separately. This second mating step was performed according to the previously described “tet-off” protocol. Doxycycline 0.05 mg/ml (Sigma-Aldich) was added to the water of impregnated female mice until embryonic day 14, after which the animals were switched back to normal water, thereby allowing initiation of IFN-γ transcription, which peaks during the postnatal period (Lin et al., 2005).
The litters of the mating systems (F1 generation) were examined daily and sacrificed at postnatal day 21. Clinical evaluation included behavioral observation and challenged ladder walking to elicit tremor. Histological examination included quantitation of the number and density of oligodendrocytes and examination of the myelination patterns. Brain tissue was simultaneously obtained from each animal at the time of sacrifice to verify and measure the expression of IFN-γ and Flag-SOCS1 (see below). The clinical and histological findings were subsequently stratified according to genotype. All animal procedures were conducted in compliance with the National Institutes of Health Guide for Care and Use of Laboratory Animals and were approved by the Institutional Animal Care and Use Committee at The University of Chicago.
Oligodendrocyte cell density was assessed digitally using Axiovision software, at postnatal day 21, as previously described (Lin et al., 2005). The brains were sectioned sagittally through the corpus callosum dividing the brain in two symmetrical halves. Ten frozen sections from each half were prepared at 7 μm thickness, and numbered in the sequence of their preparation. The brains of three animals per study group were prepared in this fashion. Following the CC1 immunostaining the corresponding area of corpus callosum of each section was digitally selected and the corresponding total area obtained. CC1 cell counting was performed manually within the selected areas of each section, and the number of CC1 positive cells per square area (mm^2) calculated. The results were presented as mean±SD of CC1 (+) cells/mm^2 with n=3 animals per study group.
Myelination patterns of the examined animals were assessed at postnatal day 21 by calculating the percent unmyelinated axons and ratio of the axon/fiber diameters (G ratio) with Image J software (National Institutes of Health, Bethesda, Md.) as previously described (Lin at al., 2005). The brains were sectioned sagittally through the corpus callosum dividing the brain in two symmetrical halves. Approximately 2 mm^3 samples from the genu and the splenum of both halves of corpus callosum were obtained using a Wild M3C stereotype microscope. The orientation of the specimen in the resin blocks yielding axonal cross-sections (well seen myelin rings) was chosen, and established by toluedine blue staining of a few sample sections. The resin blocks with the chosen orientation were processed for electron microscope examination. Randomly selected areas were examined and ten representative pictures from both genu and splenum corpus callosum were obtained at 12000× magnification. The number of unmyelinated axons was assessed by manual counting of axons that lacked myelin and were encircled solely by their own plasma membrane. All unmyelinated axons present in the representative images were counted, and their percentage calculated by examining a total of five hundred axons per tissue sample. […]

With “IFN-γ: pleotropic cytokine secreted by activated T lymphocytes and natural killer cells; delivered to the CNS by transgene or added as recombinant protein” the “decrease of MBP levels in the HOCs” value [1] was “approximately 80%”, the Incidence of tremor ([2]; 172 × PLP/SOCS1 littermates, ten mice per group) was 0% and the oligodendrocytes lost ([2]; 184/67 system) was “approximately 40%”. The “percentage of unmyelinated axons” value ([2]; 184/67 system) was 57±7%, the oligodendrocyte density ([2]; 184/67 system) was 79±9 CC1 (+) cells/mm^2 and the “G ratio (axon diameter/fiber diameter ratio)” value ([2]; 184/67 system) was 0.95±0.04. The oligodendrocytes lost ([2]; 184/110 system) was “approximately 20%”, the “percentage of unmyelinated axons” value ([2]; 184/110 system) was 41%±6 and the oligodendrocyte density ([2]; 184/110 system) was 115±8 CC1 (+) cells/mm^2. For the same substance, the “G ratio (axon diameter/fiber diameter ratio)” value ([2]; 184/110 system) was 0.89±0.02 and the “MHC class I molecule expression (immunostaining)” value ([2]; MBP/IFN-γ and MBP/IFN-γ×PLP/SOCS1 brains) was “upregulated expression”.
